Values after ≈ are worked out from the molar mass of the structure shown. Values joined by “and” are separate entries in the source; they are usually repeats but may differ in a detail not shown here. Identical values can stand only once. Like-named read-outs stand apart in the source and are kept apart here. Marks after values point to notes of the source that are not given here. Square brackets hold non-standard residues; d marks the D form. Peptide text beside a SMILES is read from it. Gly(N-CH2-oxan-4-yl) = O=C(O)CNCC1CCOCC1; NCyclohexylmethylGly = O=C(O)CNCC1CCCCC1; NMeL = CN[C@@H](CC(C)C)C(=O)O; NMeA = CN[C@@H](C)C(=O)O; NEtG = CCNCC(=O)O
Columns and labels:
[1] = Aqueous solubility, Japanese Pharmacopoeia Second Fluid (pH 6.8); type: physicochemical; details: for Aq. Sol.: Japanese Pharmacopoeia Second Fluid (pH 6.8); for solubility: Japanese Pharmacopoeia Second Fluid
Method: (§1) For each of these six pure compounds, calculated (atomistic) octanol/water partition coefficient (A Log P), aqueous solubility (Aq. Sol), PAMPA and MDCK permeabilities, experimental octanol/water partition coefficient (Log D (oct/w)), P-gp efflux ratios, microsomal stability, and serum protein binding were determined (Table 1 and FIG. 5).

[2] = PAMPA permeability of pure compounds under sink conditions; type: in vitro ADME; details: detergents in donor and acceptor wells (sink conditions); for Papp: PAMPA, read-out: PAMPA Perm.
Method: PAMPA permeability studies on these six pure compounds were performed initially under the same conditions as those used in the original library screen, using a concentration of 1 μM in the donor well based on the estimated concentration of each compound in the original library. […] Without being bound by theory, it was hypothesized that the pure compounds were precipitating in the donor well or adhering to the walls of the apparatus, and that as mixtures they could act as pseudo-detergents (or mutual blocking agents) to help prevent escape from solution (such as through aggregation or adsorption). Therefore, the PAMPA permeabilities of the pure compounds using detergents in the donor and acceptor wells as “sink” conditions were re-investigated. Using these conditions, the permeability trends were similar to those observed in the Libraries. […] The PAMPA permeabilities of the scaffold A compounds were high (large) across the entire A Log P range, whereas the permeabilities of scaffold B compounds trended upward (greater) along with A Log P.

Microsomal stability = type: in vitro ADME; details: remaining rate after 30 min of incubation with pooled liver microsomes (0.1 mg/mL, rats); for remaining at 0.5 h: rat
Serum protein binding = type: in vitro ADME; details: bound fractions in rat plasma; for fraction unbound: rat, plasma
[3] = Oral bioavailability in mice; type: in vivo; details: for bioavailability / BA: mouse; for bioavailability: po
Description: Based on their permeabilities in PAMPA and MDCK cells, the in vivo pharmacokinetics of 5 of these 6 pure compound library members were investigated (B03 was not included in the oral PK study, because of its low (small) PAMPA and MDCK permeabilities). […] To test whether metabolism and efflux were the main factors contributing to the low oral bioavailability (BA), mice were pretreated with either the CYP inhibitor […] (ABT), the P-gp inhibitor elacridar (GF120918), or a combination of both the CYP and P-gp inhibitors. […] Combining the inhibitors also produced oral bioavailabilities that reflected the compounds' relative PAMPA permeabilities.

P-gp [4] = biological target: T1, P-gp (Homo sapiens, UniProt P08183); details: MDCK, 10 μM
in vitro = details: dog, MDCK, MDCK Perm.
Method: (§2) Permeabilities were also measured in a Madin-Darby canine kidney (MDCK) permeability assay, in which the passage of the compound through a semipermeable membrane coated with MDCK cells is measured.

P-gp [5] = biological target: T1, P-gp; assay: in vitro; details: MDCK, P-gp R-value
[6] = Experimental octanol/water partition coefficient Log D (oct/w); details: for logD: octanol/water, pH 7.4, LogD (oct/w)
Method: as §1

[7] = PAMPA permeability under standard (library screen) conditions; type: in vitro ADME; details: pure compounds, donor well concentration 20 μM
Description: Libraries A and B were synthesized separately as mixtures using solid phase split-pool peptide synthesis, incorporating peptoid side chains as primary amines using the submonomer method. (Zuckermann R N et al. Efficient Method for the Preparation of Peptoids [Oligo(N-Substituted Glycines)] by Submonomer Solid-Phase Synthesis. J Am Chem Soc. (1992) 114, 10646-7. doi: DOI 10.1021/ja00052a076. PubMed PMID: WOS:A1992KD71700076.) The libraries were cleaved, cyclized in solution, and roughly purified using solid phase extraction on C18 media. Parallel artificial membrane permeability assays (PAMPA) were used to measure passive permeabilities; PAMPA permeabilities within each library varied parabolically as a function of A Log P (FIG. 2A).
PAMPA permeability studies on these six pure compounds were performed initially under the same conditions as those used in the original library screen, […] of each compound in the original library. […] Without being bound by theory, it was hypothesized that the pure compounds were precipitating in the donor well or adhering to the walls of the apparatus, and that as mixtures they could act as pseudo-detergents (or mutual blocking agents) to help prevent escape from solution (such as through aggregation or adsorption). […]

[8] = pH 7.4
Method: as §1

physchem = details: pH 7.4, LogD (oct/w)
Method: as §1

[9] = pH 6.8, pure compounds, values in text, read-out: Aqueous solubility
[10] = in vivo, mice, oral, no inhibitors, read-out: Oral bioavailability, no inhib.
[11] = in vivo, mice, oral, pretreatment with 1-aminobenztriazole (CYP inhibitor), read-out: Oral bioavailability, +CYP inhib.
[12] = in vivo, mice, oral, pretreatment with 1-aminobenztriazole and GF120918, read-out: Oral bioavailability, +CYP inhib. +P-gp inhib.
[13] = not told, mice, oral, pretreatment with GF120918 (P-gp inhibitor), read-out: Oral bioavailability, +P-gp inhib.
[14] = pH 6.8, Japanese Pharmacopoeia Second Fluid (pH 6.8), read-out: Aq. Sol.
[15] = mice, oral, pretreatment with 1-aminobenztriazole and GF120918
[16] = mice, oral, pretreatment with GF120918 (P-gp inhibitor)

T1 sequence (P08183 whole entry): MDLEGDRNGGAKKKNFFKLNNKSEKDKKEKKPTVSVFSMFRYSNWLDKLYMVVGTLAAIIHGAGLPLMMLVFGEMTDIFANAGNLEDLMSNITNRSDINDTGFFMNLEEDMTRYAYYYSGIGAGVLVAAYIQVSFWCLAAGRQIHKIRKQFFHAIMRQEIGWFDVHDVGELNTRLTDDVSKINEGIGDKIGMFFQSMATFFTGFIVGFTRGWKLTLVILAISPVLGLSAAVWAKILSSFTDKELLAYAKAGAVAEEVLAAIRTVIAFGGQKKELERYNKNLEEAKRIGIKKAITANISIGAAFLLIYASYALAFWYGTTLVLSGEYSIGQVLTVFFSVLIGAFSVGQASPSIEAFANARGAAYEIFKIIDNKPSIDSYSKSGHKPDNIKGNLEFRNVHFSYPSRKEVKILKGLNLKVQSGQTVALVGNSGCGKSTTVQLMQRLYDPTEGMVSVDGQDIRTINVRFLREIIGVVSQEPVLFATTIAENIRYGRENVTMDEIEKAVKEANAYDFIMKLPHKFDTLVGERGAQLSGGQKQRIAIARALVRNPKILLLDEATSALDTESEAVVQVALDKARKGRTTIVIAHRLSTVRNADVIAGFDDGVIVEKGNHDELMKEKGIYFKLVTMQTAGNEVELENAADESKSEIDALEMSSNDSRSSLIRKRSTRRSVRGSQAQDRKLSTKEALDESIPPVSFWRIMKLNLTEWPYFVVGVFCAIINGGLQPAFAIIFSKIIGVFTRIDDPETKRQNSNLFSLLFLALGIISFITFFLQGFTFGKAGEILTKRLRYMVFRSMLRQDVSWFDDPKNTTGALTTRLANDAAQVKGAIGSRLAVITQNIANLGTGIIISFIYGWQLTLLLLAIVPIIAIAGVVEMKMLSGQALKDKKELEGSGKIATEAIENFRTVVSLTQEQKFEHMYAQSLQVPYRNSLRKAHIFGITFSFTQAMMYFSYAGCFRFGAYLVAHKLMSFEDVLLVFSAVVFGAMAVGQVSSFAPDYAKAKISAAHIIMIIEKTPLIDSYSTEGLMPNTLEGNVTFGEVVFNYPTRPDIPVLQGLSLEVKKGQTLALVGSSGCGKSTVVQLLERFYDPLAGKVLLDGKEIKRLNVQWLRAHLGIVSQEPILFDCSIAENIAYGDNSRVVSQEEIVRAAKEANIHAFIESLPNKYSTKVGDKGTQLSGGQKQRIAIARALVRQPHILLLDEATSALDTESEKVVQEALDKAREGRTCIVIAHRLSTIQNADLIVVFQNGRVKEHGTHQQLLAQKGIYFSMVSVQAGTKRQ
Method for MDCK cells: as §2

Row | SMILES | Aq. Sol. [1] | solubility [1, 9] | Papp [2] | PAMPA Perm. [2] | remaining at 0.5 h (Microsomal stability) | Microsomal Stability (Microsomal stability) | fraction unbound (Serum protein binding) | bioavailability [3, 10] | bioavailability [3, 11] | bioavailability [3, 12] | bioavailability [3, 13] | P-gp R-value (P-gp [4]) | Papp (in vitro) | efflux ratio at 10 μM (P-gp [5]) | logD [6] | solubility [1, 14] | Serum Protein Binding (Serum protein binding) | MDCK Perm. (MDCK cells; dog) | Oral bioavailability, +CYP inhib. +P-gp inhib. [3, 15] | PAMPA membrane transport [7] | also measured
1 | CCN1CC(=O)N[C@@H](CC(C)C)C(=O)N(C)[C@@H](C)C(=O)N[C@@H](CC(C)C)C(=O)N2CCC[C@@H]2C(=O)N(CC2CCOCC2)CC(=O)N[C@@H](CC(C)C)C(=O)N(C)[C@@H](C)C(=O)N[C@@H](C)C(=O)N2CCC[C@@H]2C1=O [Compound A03] (cyclo([NEtG]L[NMeA]L[dP][Gly(N-CH2-oxan-4-yl)]L[NMeA]A[dP])) | 1.900 mg/mL | 1900 µg/mL (≈ 1870 µM) | 18 ×10⁻⁶ cm/s | 1.72e-05 cm/s | 64% | 64% | 0.31 | 1% | 2% | 39% | 4% | 6.4 | 0.4 ×10⁻⁶ cm/s | 6 | 2.9 |  |  |  |  |  | bioavailability ([3]; in vivo, 30 mg/kg, oral dose 30 mg/kg, no inhibitors, based on AUC at 1 mg/kg IV dose, read-out: BA): 11.5%; bioavailability ([3]; in vivo, 100 mg/kg, oral dose 100 mg/kg, no inhibitors, based on AUC at 1 mg/kg IV dose, read-out: BA): 22.1%; bioavailability ([3]; in vivo, 200 mg/kg, oral dose 200 mg/kg, no inhibitors, based on AUC at 1 mg/kg IV dose, read-out: BA): 49.8%; BA ([3]; oral dose 3 mg/kg, no inhibitors, based on AUC at 1 mg/kg IV dose): 1% and 0.99%; BA ([3]; oral dose 200 mg/kg, no inhibitors, based on AUC at 1 mg/kg IV dose): 50%
2 | CCN1CC(=O)N[C@@H](CC(C)C)C(=O)N(C)[C@@H](C)C(=O)N[C@@H](CC(C)C)C(=O)N2CCC[C@@H]2C(=O)N(CC2CCCCC2)CC(=O)N[C@@H](CC(C)C)C(=O)N(C)[C@@H](C)C(=O)N[C@@H](Cc2ccccc2)C(=O)N2CCC[C@@H]2C1=O [Compound A08] (cyclo(F[dP][NEtG]L[NMeA]L[dP][NCyclohexylmethylGly]L[NMeA])) | 0.070 mg/mL | 70 µg/mL (≈ 64.3 µM) | 18 ×10⁻⁶ cm/s | 1.88e-05 cm/s | 33% | 33% |  | 5% | 31% | 59% | 7% |  | 25 ×10⁻⁶ cm/s |  | 4.1 | 6.8 µg/mL (≈ 6.24 µM) | 99% and >99.8% | 2.47e-05 cm/s |  |  | 
3 | CCN1CC(=O)N[C@@H](CC(C)C)C(=O)N(C)[C@@H](C)C(=O)N[C@@H](CC(C)C)C(=O)N2CCC[C@@H]2C(=O)N(CC2CCOCC2)CC(=O)N[C@@H](CC(C)C)C(=O)N(C)[C@@H](C)C(=O)N[C@@H](Cc2ccccc2)C(=O)N2CCC[C@@H]2C1=O [Compound A09] (cyclo([NEtG]L[NMeA]L[dP][Gly(N-CH2-oxan-4-yl)]L[NMeA]F[dP])) | 0.600 mg/mL | 600 µg/mL (≈ 550 µM) | 35 ×10⁻⁶ cm/s | 3.57e-05 cm/s | 67% | 67% | 0.01 | 2% | 5% | > 100% | 22% | 46.9 | 3.1 ×10⁻⁶ cm/s | 43 | 4.1 | 640 µg/mL (≈ 586 µM) | 98% |  | 105^c % | some membrane transport was observed | LogD (oct/w) ([6]; pH 7.4): >4.1
4 | CCN1CC(=O)N[C@@H](CC(C)C)C(=O)N2CCC[C@@H]2C(=O)N(C)[C@@H](CC(C)C)C(=O)N[C@@H](C)C(=O)N(CC2CCOCC2)CC(=O)N[C@@H](C)C(=O)N2CCC[C@@H]2C(=O)N(C)[C@@H](CC(C)C)C(=O)N[C@@H](C)C1=O [Compound B03] (cyclo(A[NEtG]L[dP][NMeL]A[Gly(N-CH2-oxan-4-yl)]A[dP][NMeL])) | 1.900 mg/mL | 1900 µg/mL (≈ 1870 µM) |  |  | 94% | 94% | 0.43 |  |  |  |  |  | 0.3 ×10⁻⁶ cm/s | 1.4 | 2.1 |  | 56% |  |  |  | 
5 | CCN1CC(=O)N[C@@H](CC(C)C)C(=O)N2CCC[C@@H]2C(=O)N(C)[C@@H](CC(C)C)C(=O)N[C@@H](C)C(=O)N(CC2CCCCC2)CC(=O)N[C@@H](Cc2ccccc2)C(=O)N2CCC[C@@H]2C(=O)N(C)[C@@H](CC(C)C)C(=O)N[C@@H](C)C1=O [Compound B08] (cyclo([NEtG]L[dP][NMeL]A[NCyclohexylmethylGly]F[dP][NMeL]A)) |  | 20 µg/mL (≈ 18.4 µM) | 50 ×10⁻⁶ cm/s | >5e-05 cm/s | 53% | 53% |  |  |  | > 100% |  | 19.2 |  |  |  |  |  | 1.53e-05 cm/s | 101^c % | some membrane transport was observed | Oral bioavailability, no inhib. ([3]; mice, oral, no inhibitors): 6%; Oral bioavailability, +CYP inhib. ([3]; mice, oral, pretreatment with 1-aminobenztriazole (CYP inhibitor)): 148^c %; Oral bioavailability, +P-gp inhib. [3, 16]: 13%; LogD (oct/w) [8]: 4.8; MDCK Perm. (MDCK cells): 1.5e-05 cm/s; logD (physchem): > 4.8
6 | CCN1CC(=O)N[C@@H](CC(C)C)C(=O)N2CCC[C@@H]2C(=O)N(C)[C@@H](CC(C)C)C(=O)N[C@@H](C)C(=O)N(CC2CCOCC2)CC(=O)N[C@@H](Cc2ccccc2)C(=O)N2CCC[C@@H]2C(=O)N(C)[C@@H](CC(C)C)C(=O)N[C@@H](C)C1=O [Compound B09] (cyclo(A[NEtG]L[dP][NMeL]A[Gly(N-CH2-oxan-4-yl)]F[dP][NMeL])) | 2.200 mg/mL | 2200 µg/mL (≈ 2020 µM) | 0.7 ×10⁻⁶ cm/s | 1.4e-06 cm/s | 90% | 90% |  | 0.7% | 1.5% |  |  | 10 |  |  |  |  |  | 4e-07 cm/s | 14% |  | Oral bioavailability, +P-gp inhib. [3, 16]: 3%; logD (physchem): 3.6

— patent US11939403B2, “Peptide-peptoid scaffolds” (The Regents of the University of California, priority 2020, dated 2024)
